Measured values as given in the Kinase Knowledgebase extract (Sharma et al. 2016).
Where “and” joins values, the source holds several entries; their conditions need not be identical. Equal values may be shown once.

Experiments:
EGFR = EGFR (UniProt P00533)
EGFR (human) = EGFR (human) (UniProt P00533); conditions: kb
Sequence of EGFR (human) (P00533 whole entry, looked up): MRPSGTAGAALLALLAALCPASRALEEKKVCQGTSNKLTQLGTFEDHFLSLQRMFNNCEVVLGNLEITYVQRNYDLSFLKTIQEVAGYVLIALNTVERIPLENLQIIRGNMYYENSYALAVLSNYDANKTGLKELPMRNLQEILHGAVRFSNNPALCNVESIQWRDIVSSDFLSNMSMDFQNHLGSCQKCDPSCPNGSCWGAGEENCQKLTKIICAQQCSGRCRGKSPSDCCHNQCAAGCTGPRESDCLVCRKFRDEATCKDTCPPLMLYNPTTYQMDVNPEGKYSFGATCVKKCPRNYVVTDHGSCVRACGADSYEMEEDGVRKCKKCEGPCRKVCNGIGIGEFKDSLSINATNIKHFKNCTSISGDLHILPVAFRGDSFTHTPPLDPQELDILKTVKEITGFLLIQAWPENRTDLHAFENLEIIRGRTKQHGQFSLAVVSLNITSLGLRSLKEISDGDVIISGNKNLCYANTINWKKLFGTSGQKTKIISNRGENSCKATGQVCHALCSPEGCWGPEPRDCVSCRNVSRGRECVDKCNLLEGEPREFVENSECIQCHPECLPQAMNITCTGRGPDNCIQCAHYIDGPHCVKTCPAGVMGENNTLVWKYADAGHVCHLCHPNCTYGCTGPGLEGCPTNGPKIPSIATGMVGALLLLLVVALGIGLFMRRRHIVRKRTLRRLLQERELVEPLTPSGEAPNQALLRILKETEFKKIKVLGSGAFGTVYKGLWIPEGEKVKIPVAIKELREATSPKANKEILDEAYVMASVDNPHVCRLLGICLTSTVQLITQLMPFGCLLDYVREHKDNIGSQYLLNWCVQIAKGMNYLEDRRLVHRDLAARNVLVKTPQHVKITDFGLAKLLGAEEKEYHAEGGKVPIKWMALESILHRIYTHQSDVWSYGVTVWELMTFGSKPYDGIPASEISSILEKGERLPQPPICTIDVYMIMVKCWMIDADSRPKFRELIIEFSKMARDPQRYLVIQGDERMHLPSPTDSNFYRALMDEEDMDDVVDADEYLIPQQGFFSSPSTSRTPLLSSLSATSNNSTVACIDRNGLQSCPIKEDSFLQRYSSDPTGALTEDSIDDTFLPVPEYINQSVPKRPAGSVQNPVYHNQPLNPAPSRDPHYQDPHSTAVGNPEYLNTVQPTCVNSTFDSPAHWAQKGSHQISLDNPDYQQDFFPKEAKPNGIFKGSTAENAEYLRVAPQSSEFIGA

Sequence of EGFR (P00533 whole entry, looked up): as above

Row | IC50 (EGFR) | IC50 (EGFR (human)) [nM] | SMILES
1 | 1 to 100 nM | 1 to 100 | COc1cc2ncnc(Nc3cccc(Cl)c3F)c2cc1OC1CCN(C(=O)COP(=O)(O)O)CC1
2 | 3 nM and 1 to 100 nM | 1 to 100 | COc1cc2ncnc(Nc3cccc(Cl)c3F)c2cc1OC1CCN(C(=O)CO)CC1
